± gives the expanded uncertainty stated by the source.
How the values were obtained:
[1] = Liquid; for vapor or sublimation pressure: Twin ebulliometer
[2] = refractive index (Na D-line) (dimensionless); conditions: 298.15 K; 101.33 kPa; Liquid; Standard Abbe refractometry

Structure (SMILES)	vapor or sublimation pressure ([1]; 292.33 K)	vapor or sublimation pressure ([1]; 303.83 K)	vapor or sublimation pressure ([1]; 311.14 K)	vapor or sublimation pressure ([1]; 317.9 K)	vapor or sublimation pressure ([1]; 323.09 K)	vapor or sublimation pressure ([1]; 326.8 K)	vapor or sublimation pressure ([1]; 330.56 K)	vapor or sublimation pressure ([1]; 333.94 K)	vapor or sublimation pressure ([1]; 337.18 K)	vapor or sublimation pressure ([1]; 339.97 K)	vapor or sublimation pressure ([1]; 342.3 K)	refractive index [2]	mass density ([1]; 298.15 K, 101.33 kPa)
CCO [ethanol]	5.59 ± 0.15 kPa	10.86 ± 0.15 kPa	16.15 ± 0.16 kPa	22.84 ± 0.17 kPa	29.41 ± 0.18 kPa	35.11 ± 0.19 kPa	41.76 ± 0.21 kPa	48.61 ± 0.22 kPa	56.06 ± 0.24 kPa	63.2 ± 0.26 kPa	69.73 ± 0.27 kPa	1.3596 ± 0.0004	
CO [methanol]												1.3266 ± 0.0004	786.59 ± 0.62 kg/m3
